Data published in publication PMC3820707, “Structure-Activity Relationships of Constrained Phenylethylamine Ligands for the Serotonin 5-HT2 Receptors” (PLoS ONE, 2013).
Counter-ions that a name gives are not always drawn. Like-named read-outs stand apart in the source and are kept apart here.

How the values were obtained:
5-HT2A [1] = target: T1, 5-HT2A (Homo sapiens, UniProt P28223); conditions: read-out: Affinity, Ki 5-HT2A; cited from earlier work
5-HT2C [2] = conditions: Rat; read-out: Affinity, Ki 5-HT2C; cited from earlier work
5-HT2A [3] = conditions: cited from earlier work; for Ki: Rat, read-out: Affinity, Ki 5-HT2A
5-HT2A-C = target: 5-HT2A-C; set-up: method as in PMID 9857084; conditions: range over 5-HT2A, 5-HT2B, 5-HT2C; read-out: Affinity in 5-HT2A-C; cited from earlier work
5-HT2B = 5-HT2B (Homo sapiens, UniProt P41595); test: Competition binding with [3H]-LSD (NIMH PDSP)
5-HT2A [4] = target: T1, 5-HT2A; test: Competition binding with [3H]-ketanserin (NIMH PDSP)
5-HT2C [5] = target: T2, 5-HT2C (Homo sapiens, UniProt P28335); test: Competition binding with [3H]-mesulergine (NIMH PDSP)
T2 sequence (P28335 33-458): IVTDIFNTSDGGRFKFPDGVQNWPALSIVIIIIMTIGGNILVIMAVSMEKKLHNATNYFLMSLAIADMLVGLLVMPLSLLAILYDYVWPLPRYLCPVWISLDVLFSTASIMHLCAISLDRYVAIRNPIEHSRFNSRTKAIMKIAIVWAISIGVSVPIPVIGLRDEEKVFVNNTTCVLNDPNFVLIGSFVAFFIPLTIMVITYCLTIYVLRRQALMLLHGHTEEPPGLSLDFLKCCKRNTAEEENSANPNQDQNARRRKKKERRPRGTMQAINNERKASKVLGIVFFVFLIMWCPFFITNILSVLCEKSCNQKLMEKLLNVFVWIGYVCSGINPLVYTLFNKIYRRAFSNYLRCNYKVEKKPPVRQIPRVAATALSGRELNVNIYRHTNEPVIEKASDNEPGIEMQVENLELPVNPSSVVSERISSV

[6] = Affinity, Ki 5-HT2B, radioligand [3H]-LSD

T1 sequence (P28223 whole entry): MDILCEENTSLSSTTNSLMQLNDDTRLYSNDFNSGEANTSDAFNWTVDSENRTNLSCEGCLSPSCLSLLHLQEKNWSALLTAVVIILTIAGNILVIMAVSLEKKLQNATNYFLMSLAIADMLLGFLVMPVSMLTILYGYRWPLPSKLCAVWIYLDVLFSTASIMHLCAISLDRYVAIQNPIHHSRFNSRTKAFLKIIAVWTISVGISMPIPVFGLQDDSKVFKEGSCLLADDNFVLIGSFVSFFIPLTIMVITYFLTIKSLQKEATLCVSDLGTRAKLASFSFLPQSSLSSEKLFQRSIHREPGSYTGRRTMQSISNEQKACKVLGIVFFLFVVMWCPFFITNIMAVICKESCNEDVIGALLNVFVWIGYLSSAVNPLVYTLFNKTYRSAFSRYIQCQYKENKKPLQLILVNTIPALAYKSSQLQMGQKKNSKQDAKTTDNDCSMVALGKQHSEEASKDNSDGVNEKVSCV
Chain of 5-HT2B (P41595 whole entry): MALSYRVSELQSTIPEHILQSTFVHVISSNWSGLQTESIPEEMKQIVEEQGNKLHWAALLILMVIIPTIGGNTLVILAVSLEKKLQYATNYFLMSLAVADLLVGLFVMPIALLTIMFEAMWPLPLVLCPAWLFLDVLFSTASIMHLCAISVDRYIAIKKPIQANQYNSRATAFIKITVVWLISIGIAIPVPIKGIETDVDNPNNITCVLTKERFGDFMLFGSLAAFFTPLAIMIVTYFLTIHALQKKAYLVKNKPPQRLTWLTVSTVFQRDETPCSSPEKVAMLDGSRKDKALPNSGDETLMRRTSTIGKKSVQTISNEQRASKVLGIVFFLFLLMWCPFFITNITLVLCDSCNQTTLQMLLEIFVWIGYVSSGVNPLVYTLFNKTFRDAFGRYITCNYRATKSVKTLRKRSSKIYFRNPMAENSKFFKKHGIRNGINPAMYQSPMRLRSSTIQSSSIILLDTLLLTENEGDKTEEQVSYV

COc1cc2c(cc1Br)OCC2CN (stereo not shown) (as salt: hydrochloride) [Compound 9, (6-Bromo-5-methoxy-2,3-dihydrobenzofuran-3-yl)methanamine]
melting point: 232 to 234 °C (dec.)

COc1cc2c(cc1Br)OCCCC2CN (stereo not shown) (as salt: hydrochloride) [Compound 11, (8-Bromo-7-methoxy-2,3,4,5-tetrahydrobenzo[b]oxepin-5-yl)methanamine]
melting point: 224 to 226 °C

COc1cc(CCN)c(OC)cc1Br [Compound 1a, 2C-B]
Ki (5-HT2A [1]): 0.88 nM

COc1cc(CC(C)N)c(OC)cc1Br (stereo not shown) [Compound 1b, DOB]
Ki (5-HT2C [2]): 2.82 nM

NCCc1c2c(c(Br)c3c1OCCC3)OCCC2 [Compound 3a, 2C-B-butterfly]
Ki (5-HT2C [2]): 1.52 nM
Ki (5-HT2A [3]): 1.76 nM

CC(N)Cc1c2c(c(Br)c3c1OCCC3)OCCC2 (stereo not shown) [Compound 3b, DOB-butterfly]
Ki (5-HT2C [2]): 1.85 nM
Ki (5-HT2A [3]): 3.87 nM

CC(N)Cc1c2ccoc2c(Br)c2ccoc12 (stereo not shown) [Compound 4, Bromo-DragonFLY]
Ki (5-HT2A-C): 0.02 to 0.19 nM

COc1cc(Br)c(OC)c2c1C(CN)CC2 (stereo not shown) [Compound 7]
Ki (5-HT2A [1]): 47 nM

COc1cc2c(cc1Br)OCCC(N)C2 (stereo not shown) [Compound 8]
Fold lower affinity than the unconstrained reference DOB (5-HT2A [3]; 5-HT2A): 373 fold
Ki (5-HT2A [3]): 422 nM

COc1cc2c(cc1Br)OCC2CN (stereo not shown) [Compound 9, (6-Bromo-5-methoxy-2,3-dihydrobenzofuran-3-yl)methanamine]
Ki (5-HT2B; [6]): 196 ± 28 nM
Ki (5-HT2A [4]): 1040 ± 188 nM
Ki (5-HT2C [5]): 135 ± 31 nM

COc1cc2c(cc1Br)OCCCC2CN (stereo not shown) [Compound 11, (8-Bromo-7-methoxy-2,3,4,5-tetrahydrobenzo[b]oxepin-5-yl)methanamine]
Ki (5-HT2B; Affinity for 5-HT2B, radioligand [3H]-LSD): 1900 nM
Ki (5-HT2B; [6]): 1870 ± 345 nM
Ki (5-HT2A [4]): > 10000 nM
Affinity, Ki 5-HT2A (5-HT2A [4]; Human, radioligand [3H]-ketanserin): inactive
Ki (5-HT2C [5]): > 10000 nM
Affinity, Ki 5-HT2C (5-HT2C [5]; Human, radioligand [3H]-mesulergine): inactive

(6-Methoxychroman-4-yl)methanamine [Compound 10]
Ki (5-HT2B; read-out: Affinity, Ki 5-HT2B, radioligand [3H]-LSD): 70 ± 13 nM
Ki (5-HT2A [4]; read-out: Affinity, Ki 5-HT2A, Human, radioligand [3H]-ketanserin): 847 ± 79 nM
Ki (5-HT2C [5]; read-out: Affinity, Ki 5-HT2C, Human, radioligand [3H]-mesulergine): 124 ± 9 nM
